Legend:
[1] = Lutein distribution in human cadaveric eyes after corneo-scleral iontophoresis, two-photon microscopy; type: in vitro ADME; conditions: 2.5 mA for 5 min cornea/sclera, 80 min rest
Method: (§1) A typical iontophoretic setting is made of two components: ocular applicator and a return electrode both connected to a generator. In this experiment, the ocular applicator comprised 2 electrodes to address independently corneal and scleral tissues. The ocular applicator (OPIA Technologies SAS, Paris, France) is made of polyurethane resin and comprises 2 reservoirs: central circular reservoir (diameter 8 mm, height 4.5 mm, volume 1 ml) and a stainless steel electrode, applied on the cornea surrounded by an annular reservoir (inner diameter 12.5 mm, outer diameter 18 mm height 4.5 mm, volume 1 ml) and a stainless steel electrode, applied on the sclera (pars plana region around the limbus). Each stainless steel electrode connected with a lead to a different constant current generator (anode —positive electrode). The return electrodes were assigned to each generator and respectively attached to the optic nerve (for the corneal electrode) and the equator region of the sclera (for scleral electrode), closing each electrical circuit independently.
Cadaveric eyes. Six human cadaveric eye globes, from different healthy donors, were obtained from the Veneto Eye Bank Foundation (Venezia Zelarino, Italy). […]
(§2) Preparation of the eyes. […] After pre-conditioning, the central corneal thickness (CCT) was measured, using an ultrasound corneal pachymeter (Pachmate, DGH, Exton, USA). […]

[2] = Resonance Raman spectroscopy of ocular tissues of human cadaveric eyes after iontophoresis; type: in vitro ADME
Method: as §1
Cadaveric eyes. Six human cadaveric eye globes, from different healthy donors, were obtained from the Veneto Eye Bank Foundation (Venezia Zelarino, Italy). The human eyes were used in compliance with the guidelines of the Declaration of Helsinki for research involving the use of human tissue and were explanted between 3 and 16 hours after death and immediately preserved at 4° C. in corneal storage medium enriched with 6% dextran. The mean donor age was 63.6±5.9 years. The mean endothelial cell density was 2125±389 cells/mm^2. Each eye globe, submerged in dextran enriched solution, was shipped to the laboratory within 5 days. Four eye globes underwent corneo-scleral iontophoresis to deliver 0.1% lutein ophthalmic solution into the retinal tissue. Two eye globes were used as control: iontophoresis was performed without presence of the formulation.
as §2

Structure (SMILES): CC1=C[C@H](O)CC(C)(C)[C@H]1/C=C/C(C)=C/C=C/C(C)=C/C=C/C=C(C)/C=C/C=C(C)/C=C/C1=C(C)C[C@@H](O)CC1(C)C [lutein]
- Lutein distribution within the retina, outer versus inner part [1]: more lutein in the outer part close to the photoreceptors than in the ganglion cells
- Lutein in the retina [1]: abundant in the retina
- Raman peak at 1530 cm−1, treated eye versus control eye ([2]; inner sclera): 7 times
- Raman peak at 1530 cm−1, treated eye versus controls ([2]; macula): 1.3 times
- Raman peak at 1530 cm−1, treated eye versus control eye ([2]; retinal mid-periphery): 1.7 times

From US20230329906A1, “INTRAOCULAR DELIVERY OF BIOACTIVE MOLECULES USING IONTOPHORESIS” (KEMIN INDUSTRIES, INC., priority 2014, published 2023)
